The source of these data is patent US20260035355A1, “COMPOUND, PHARMACEUTICAL COMPOSITION COMPRISING SAME, AND USE THEREOF” (SHENZHEN ZHONGGE BIOLOGICAL TECHNOLOGY CO., LTD., priority 2022, published 2026).

Broadly, the EC50 is the concentration giving half of the maximal effect. Read a high EC50 as a less potent agent.

This test deals with T1, eIF2B (Homo sapiens, UniProt P49770+Q9UI10).
T1 construct: endogenous in cells; host or cells: HEK293T/17-ATF4 uORF-Luc-Puro monoclonal cells
In words: ATF4-Luc assay (ATF4 luciferase reporter, thapsigargin-induced stress). In kind it is cell-based. To be noted: HEK293T/17-ATF4 uORF-Luc-Puro monoclonal cells, 50 nM thapsigargin, incubated for 6 hours. From the text: The ATF4 luciferase reporter plasmid consists of two parts, i.e., the 5′ untranslated region sequence of the ATF4 gene and the luciferase coding sequence. Specifically, the ATF4 5′ untranslated region sequence (NCBI database number BC022088.2) containing two upstream open reading frames (uORFs), and the firefly luciferase encoding gene were cloned into the pLVX-Puro vector (YouBio, VT1465). The packaging plasmids of lentivirus were psPAX2 (YouBio, VT1444) and pMD2.G (YouBio, VT1443). 650,000 HEK293T cells were seeded per well of a 6-well plate and cultured overnight in a 5% CO2 incubator. The cells were transfected with the packaged lentivirus for 48 hours and then centrifuged, and the supernatant was discarded. The medium was replaced and changed to the DMEM complete medium containing 0.8 μg/ml puromycin, and the cells were resuspended and then cultured. After one week of cell screening with puromycin, the surviving cells were HEK293T-ATF4 uORF-Luc-Puro polyclonal cells. 200 polyclonal cells were taken and subjected to limiting gradient dilution by using a 96-well plate, so as to obtain monoclonal cells.
The specific method for screening the monoclonal cells involves: placing the 200 polyclonal cells in well A1 of the 96-well plate; step one: performing gradient dilution from columns A1 to H1 at a ratio of 1:2; step two: performing gradient dilution from rows A to H, with each row from wells 1 to 12 at a ratio of 1:2; marking the wells with a theoretical cell number less than 0.5 and observing one by one under a microscope; marking the wells with only one cell; and culturing the cells for two weeks to obtain the monoclonal cells.
By using this cell line and the cold fluorescence readings, the translational regulation of ATF4 can be detected, and the activity of eIF2B activated by the compounds can be tested.
The specific experimental process is as follows: 6000 HEK293T/17-ATF4 uORF-Luc-Puro monoclonal cells were plated in a 384-well plate and allowed to adhere overnight. The test compounds were dissolved in DMSO and diluted to 10 different concentrations, which were respectively added together with 50 nM thapsigargin to the cell culture medium and incubated for 6 hours, wherein the thapsigargin was used to cause cellular stress and upregulate the protein translation of ATF4. Six hours after the addition, the cells were lysed using the One-Glo Luciferase Assay Kit (Promega #E6120), and then the cold fluorescence values were read using the LUM program of the EnVision 2104 plate reader.
EC50 was calculated based on the fluorescence values at 9 concentrations (0.1 nM, 0.3 nM, 1.0 nM, 3.0 nM, 10.0 nM, 30.0 nM, 100.0 nM, 300.0 nM and 1000.0 nM) of each compound and recorded in Table 1.
The ATF4 reporter expression was calculated as follows:
ATF4 reporter expression=(ave_sample-ave_vc)/(ave_pc-ave_vc)
where ave_vc represents the average signal value of negative controls, ave_pc represents the average signal value of positive controls, and ave_sample represents the average signal value of samples.
The dose-response curves were fitted, and the EC50 values were calculated.
The nonlinear regression log(inhibitor) vs. response—variable slope (four parameters) method of GraphPad 9 software was used to fit the corresponding relationship between the ATF4 reporter expression and the compound concentration.
The X-axis represents the log value of the compound concentration; and the Y-axis represents the ATF4 reporter expression.

T1 sequence (P49770 whole entry): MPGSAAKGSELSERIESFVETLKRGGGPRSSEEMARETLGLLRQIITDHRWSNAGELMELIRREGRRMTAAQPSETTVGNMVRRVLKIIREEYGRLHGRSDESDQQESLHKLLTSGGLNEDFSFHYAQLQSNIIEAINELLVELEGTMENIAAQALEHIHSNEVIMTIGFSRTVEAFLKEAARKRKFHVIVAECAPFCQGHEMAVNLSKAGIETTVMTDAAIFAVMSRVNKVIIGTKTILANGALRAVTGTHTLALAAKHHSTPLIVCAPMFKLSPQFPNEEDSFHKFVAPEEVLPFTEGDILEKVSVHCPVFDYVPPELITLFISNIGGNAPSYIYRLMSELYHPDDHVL
T1 sequence (Q9UI10 whole entry): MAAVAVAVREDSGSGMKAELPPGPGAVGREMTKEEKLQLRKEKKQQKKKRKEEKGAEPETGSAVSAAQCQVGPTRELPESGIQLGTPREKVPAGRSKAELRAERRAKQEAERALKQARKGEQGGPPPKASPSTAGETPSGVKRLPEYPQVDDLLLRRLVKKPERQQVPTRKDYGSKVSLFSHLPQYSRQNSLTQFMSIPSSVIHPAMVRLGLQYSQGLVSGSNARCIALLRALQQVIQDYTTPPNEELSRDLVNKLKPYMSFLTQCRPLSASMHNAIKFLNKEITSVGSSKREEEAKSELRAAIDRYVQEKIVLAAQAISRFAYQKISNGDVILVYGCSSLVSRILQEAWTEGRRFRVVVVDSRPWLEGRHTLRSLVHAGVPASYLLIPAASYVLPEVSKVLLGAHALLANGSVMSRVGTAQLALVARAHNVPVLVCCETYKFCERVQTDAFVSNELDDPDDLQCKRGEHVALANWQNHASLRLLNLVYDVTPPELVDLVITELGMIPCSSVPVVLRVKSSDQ
T1 sequence (Q14232 whole entry partner): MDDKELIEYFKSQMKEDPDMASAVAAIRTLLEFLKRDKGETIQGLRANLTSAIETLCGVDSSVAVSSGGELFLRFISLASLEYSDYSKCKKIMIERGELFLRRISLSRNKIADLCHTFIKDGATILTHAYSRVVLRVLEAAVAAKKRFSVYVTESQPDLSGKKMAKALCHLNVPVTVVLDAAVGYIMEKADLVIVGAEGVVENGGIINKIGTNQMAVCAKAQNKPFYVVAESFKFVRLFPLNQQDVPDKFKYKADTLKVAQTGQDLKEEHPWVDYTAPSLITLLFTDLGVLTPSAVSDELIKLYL
T1 sequence (Q9NR50 whole entry partner): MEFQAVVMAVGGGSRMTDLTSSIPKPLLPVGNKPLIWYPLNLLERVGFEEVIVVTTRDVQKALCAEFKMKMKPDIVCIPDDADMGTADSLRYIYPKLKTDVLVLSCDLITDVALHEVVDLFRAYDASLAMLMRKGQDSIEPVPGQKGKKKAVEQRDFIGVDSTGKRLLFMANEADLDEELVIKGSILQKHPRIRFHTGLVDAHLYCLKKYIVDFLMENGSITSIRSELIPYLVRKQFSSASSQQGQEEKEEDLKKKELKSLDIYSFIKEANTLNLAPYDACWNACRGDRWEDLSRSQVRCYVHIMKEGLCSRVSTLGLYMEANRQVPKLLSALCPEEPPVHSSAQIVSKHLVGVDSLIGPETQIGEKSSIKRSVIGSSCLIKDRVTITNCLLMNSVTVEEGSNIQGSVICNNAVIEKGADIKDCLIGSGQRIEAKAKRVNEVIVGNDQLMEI
T1 sequence (Q13144 whole entry partner): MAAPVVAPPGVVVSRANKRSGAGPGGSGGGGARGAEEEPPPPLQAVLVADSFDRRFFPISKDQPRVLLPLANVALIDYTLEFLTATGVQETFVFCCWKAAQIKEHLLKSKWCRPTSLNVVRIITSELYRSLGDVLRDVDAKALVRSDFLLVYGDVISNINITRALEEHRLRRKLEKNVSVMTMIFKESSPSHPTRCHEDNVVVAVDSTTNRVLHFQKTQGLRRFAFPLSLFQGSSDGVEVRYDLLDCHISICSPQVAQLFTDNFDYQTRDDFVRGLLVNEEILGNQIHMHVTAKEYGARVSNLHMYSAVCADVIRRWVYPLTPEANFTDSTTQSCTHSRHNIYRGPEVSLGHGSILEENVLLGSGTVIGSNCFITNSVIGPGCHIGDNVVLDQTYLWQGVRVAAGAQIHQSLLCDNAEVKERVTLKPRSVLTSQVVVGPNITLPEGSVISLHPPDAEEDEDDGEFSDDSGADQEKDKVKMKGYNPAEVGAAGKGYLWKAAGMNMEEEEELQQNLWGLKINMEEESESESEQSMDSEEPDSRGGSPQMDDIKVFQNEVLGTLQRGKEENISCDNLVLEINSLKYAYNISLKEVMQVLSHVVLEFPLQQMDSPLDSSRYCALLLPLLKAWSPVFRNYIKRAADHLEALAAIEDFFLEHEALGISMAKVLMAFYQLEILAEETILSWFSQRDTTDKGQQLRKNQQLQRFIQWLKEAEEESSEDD

In turn, `O=C(COc1ccc(Cl)c(F)c1)NC1CC12CCN(C(=O)c1cnc(C(F)F)cn1)CC2` (stereo not shown) [I-1] displayed an EC50 above 100 nM. `O=C(COc1ccc(Cl)c(F)c1)NC1CC12CCN(C(=O)c1cc3cc(Cl)ccc3o1)CC2` (stereo not shown) [I-2] yielded an EC50 above 100 nM. Under `O=C(COc1ccc(Cl)c(F)c1)NC1CC12CCN(C(=O)[C@H]1CNc3cc(Cl)ccc3O1)CC2` (stereo partly shown) [I-3] stands above 100 nM; under `CN1C[C@H](C(=O)N2CCC3(CC2)CC3NC(=O)COc2ccc(Cl)c(F)c2)Oc2ccc(Cl)cc21` (stereo partly shown) [I-4], above 100 nM; under `O=C(COc1ccc(Cl)c(F)c1)NC1CC12CCN(NC(=O)COc1ccc(Cl)c(F)c1)CC2` (stereo not shown) [I-5], above 100 nM.

As to `O=C(COc1ccc(Cl)c(F)c1)NC1CC12CCN(NC(=O)c1cc3cc(Cl)ccc3o1)CC2` (stereo not shown) [I-6], the concentration for a half-maximal effect (EC50) is above 100 nM. Under `O=C(COc1ccc(Cl)c(F)c1)NC1CC12CCN(NC(=O)[C@H]1CNc3cc(Cl)ccc3O1)CC2` (stereo partly shown) [I-7] stands above 100 nM. For `CN1C[C@H](C(=O)NN2CCC3(CC2)CC3NC(=O)COc2ccc(Cl)c(F)c2)Oc2ccc(Cl)cc21` (stereo partly shown) [I-8] the value was above 100 nM; for `O=C(NC1CC12CCN(C(=O)c1cc3cc(Cl)ccc3o1)CC2)c1cc2cc(Cl)ccc2o1` (stereo not shown) [I-9], above 100 nM; for `O=C(NC1CC12CCN(NC(=O)c1cc3cc(Cl)ccc3o1)CC2)c1cc2cc(Cl)ccc2o1` (stereo not shown) [I-10], 10 to 100 nM. The molecule `O=C(COc1ccc(Cl)c(F)c1)NC1COC2(C1)CN(C(=O)c1cnc(C(F)F)cn1)C2` (stereo not shown) [II-10] had an EC50 above 100 nM. For `O=C(COc1ccc(Cl)c(F)c1)NC1COC2(C1)CN(C(=O)COc1ccc(Cl)c(F)c1)C2` (stereo not shown) [II-11] the value was above 100 nM; for `O=C(COc1ccc(Cl)c(F)c1)NC1COC2(C1)CN(C(=O)c1cc3cc(Cl)ccc3o1)C2` (stereo not shown) [II-12], 10 to 100 nM.

In the case of `O=C(COc1ccc(Cl)c(F)c1)NC1COC2(C1)CN(C(=O)[C@H]1CNc3cc(Cl)ccc3O1)C2` (stereo partly shown) [II-13], the EC50 is above 100 nM.

In turn, `CN1C[C@H](C(=O)N2CC3(CC(NC(=O)COc4ccc(Cl)c(F)c4)CO3)C2)Oc2ccc(Cl)cc21` (stereo partly shown) [II-14] showed an EC50 above 100 nM. For `O=C(COc1ccc(Cl)c(F)c1)NC1CC2(C1)CC(NC(=O)COc1ccc(Cl)c(F)c1)C2` (stereo not shown) [III-10] the value was above 100 nM.

`O=C(COc1ccc(Cl)c(F)c1)NC1CC2(C1)CC(NC(=O)c1cnc(C(F)F)cn1)C2` (stereo not shown) [III-11] came in with an EC50 above 100 nM. Take `CN1CC(C(=O)NC2CC3(CC(NC(=O)COc4ccc(Cl)c(F)c4)C3)C2)Oc2ccc(Cl)cc21` (stereo not shown) [III-12]: the EC50 is above 100 nM. Under `O=C(COc1ccc(Cl)c(F)c1)NC1CC2(C1)CC(NC(=O)C1CNc3cc(Cl)ccc3O1)C2` (stereo not shown) [III-13] stands 10 to 100 nM; under `O=C(COc1ccc(Cl)c(F)c1)NC1CC2(CCN(c3nnc(N4CC(OC(F)(F)F)C4)o3)CC2)C1` [IV-1], 10 to 100 nM. Under `O=C(COc1ccc(Cl)c(F)c1)NC1CC2(CCN(C(=O)COc3ccc(Cl)c(F)c3)CC2)C1` [IV-11] stands 10 to 100 nM. For the molecule `O=C(COc1ccc(Cl)c(F)c1)NC1CC2(CCN(C(=O)c3cnc(C(F)F)cn3)CC2)C1` [IV-12], the EC50 is above 100 nM. As to `O=C(COc1ccc(Cl)c(F)c1)NC1CC2(CCN(C(=O)[C@H]3CNc4cc(Cl)ccc4O3)CC2)C1` [IV-13], the EC50 is below 10 nM. For `O=C(COc1ccc(Cl)c(F)c1)NC1CC2(CCN(c3nnc(-c4ccc(Cl)cc4)o3)CC2)C1` [IV-14] the value was 10 to 100 nM; for `CN1C[C@H](C(=O)N2CCC3(CC2)CC(NC(=O)COc2ccc(Cl)c(F)c2)C3)Oc2ccc(Cl)cc21` [IV-15], above 100 nM; for `O=C(CO[C@H]1C[C@@H](OC(F)(F)F)C1)NC1CC2(CCN(C(=O)c3cc4cc(Cl)ccc4o3)CC2)C1` [IV-16], above 100 nM. Under `O=C(CO[C@H]1C[C@@H](OC(F)(F)F)C1)NC1CC2(CCN(C(=O)COc3ccc(Cl)c(F)c3)CC2)C1` [IV-17] stands above 100 nM; under `O=C(NC1CC2(CCN(C(=O)[C@@H]3CNc4cc(Cl)ccc4O3)CC2)C1)[C@H]1CNc2cc(Cl)ccc2O1` [IV-18], 10 to 100 nM.
